Converted amounts (≈) assume the structure as drawn. Structures can show the parent of a compound that is named as a salt. Where two headings read alike, the source gives them in different places.
Tests used:
[1] = system: thrombocytes; assay: Thrombocyte aggregation inhibiting activity in human plasma enriched with thrombocytes (aggregation induced with ADP or collagen); type: cell-based
Description: ID50 concentrations in case of aggregation generated with ADP and collagen resp. in plasma enriched with thrombocytes (PRB) isolated from human blood are as disclosed hereinbelow. As a comparison ID50 concentration values obtained with PGI2 sodium salt under the same test conditions are given.

[2] = acidic or neutral medium; decomposes to 6-keto-PGF1α; cited from earlier work
[3] = aggregation induced with ADP, read-out: ID50, thrombocyte aggregation inhibiting activity, ADP
[4] = aggregation induced with collagen, read-out: ID50, thrombocyte aggregation inhibiting activity, collagen

| IC50 [1, 3] | IC50 [1, 4] | Structure (SMILES) | stability of PGI2 [2] |
| --- | --- | --- | --- |
| 0.1 to 0.2 µg/mL (≈ 0.263 to 0.526 µM) | 0.05 µg/mL (≈ 0.131 µM) | CCCCC[C@H](O)/C=C/[C@@H]1[C@H]2C(=O)/C(=C/CCCC(=O)OC)O[C@H]2C[C@H]1O [7-Oxo-PGI2-methyl ester, 7-Oxo-PGI2-methylester] |  |
|  |  | CCCCC[C@H](O)/C=C/[C@@H]1[C@H]2C/C(=C/CCCC(=O)O)O[C@H]2C[C@H]1O [PGI2] | immediately decomposes |
| 0.015 µg/mL | 0.08 µg/mL | CCCCC[C@H](O)/C=C/[C@@H]1[C@H]2C(=O)/C(=C/CCCC(=O)O)O[C@H]2C[C@H]1O [Sodium salt of 7-oxo-PGI2] |  |
| 0.001 to 0.002 µg/mL | 0.001 to 0.002 µg/mL | CCCCC[C@H](O)/C=C/[C@@H]1[C@H]2C/C(=C/CCCC(=O)O)O[C@H]2C[C@H]1O [Sodium salt of PGI2, reference compound] |  |

Reference: patent US4330553A, “7-Oxo-PGI2 -derivatives and process for the preparation thereof and pharmaceutical compositions containing same” (Chinoin Gyogyszer es Vegyeszeti Termekek Gyara R.T., priority 1979, dated 1982)
